According to patent US20150141411A1, “SUBSTITUTED 3,4-DIHYDRO-2H-PYRIDO[1,2-A]PYRAZINE-1,6-DIONE DERIVATIVES USEFUL FOR THE TREATMENT OF (INTER ALIA) ALZHEIMER'S DISEASE” (Janssen Pharmaceuticals, Inc., priority 2012, published 2015):

Legend:
γ-secretase [1] = molecular target: T1, γ-secretase (Homo sapiens, UniProt P49768); test: Screening for γ-secretase-modulating activity: Aβtotal in supernatant of SKNBE2 cells carrying hAPP 695 wild type (Alphalisa); format: cell-based; conditions: SKNBE2 human neuroblastoma cells carrying hAPP 695 wild type, overnight incubation, Aβtotal in cell supernatant
T1 construct: endogenous in cells; host or cells: SKNBE2 human neuroblastoma cells (carrying hAPP 695 wild type as substrate)
Description: (§1) Screening was carried out using SKNBE2 human neuroblastoma cells carrying the hAPP 695—wild type, grown in Dulbecco's Modified Eagle's Medium/Nutrient mixture F-12 (DMEM/NUT-mix F-12) (HAM) provided by Invitrogen (cat no. 10371-029) containing 5% Serum/Fe supplemented with 1% non-essential amino acids, 1-glutamine 2 mM, Hepes 15 mM, penicillin 50 U/ml (units/ml) en streptomycin 50 μg/ml. Cells were grown to near confluency.
(§2) The screening was performed using a modification of the assay as described in Citron et al (1997) Nature Medicine 3: 67. Briefly, cells were plated in a 384-well plate at 10^4 cells/well in Ultraculture (Lonza, BE12-725F) supplemented with 1% glutamine (Invitrogen, 25030-024), 1% non-essential amino acid (NEAA), penicillin 50 U/ml en streptomycin 50 μg/ml in the presence of test compound at different test concentrations. The cell/compound mixture was incubated overnight at 37° C., 5% CO2. The next day the media were assayed by two sandwich immuno-assays, for Aβ42 and Aβ total.
(§3) Aβtotal and Aβ42 concentrations were quantified in the cell supernatant using the Aphalisa technology (Perkin Elmer). Alphalisa is a sandwich assay using biotinylated antibody attached to streptavidin coated donorbeads and antibody conjugated to acceptor beads. In the presence of antigen, the beads come into close proximity. The excitation of the donor beads provokes the release of singlet oxygen molecules that trigger a cascade of energy transfer in the acceptor beads, resulting in light emission. To quantify the amount of Aβ42 in the cell supernatant, monoclonal antibody specific to the C-terminus of Aβ42 (JRF/cAβ42/26) was coupled to the receptor beads and biotinylated antibody specific to the N-terminus of Aβ (JRF/AβN/25) was used to react with the donor beads. To quantify the amount of Aβtotal in the cell supernatant, monoclonal antibody specific to the N-terminus of Aβ (JRF/AβN/25) was coupled to the receptor beads and biotinylated antibody specific to the mid region of Aβ (biotinylated 4G8) was used to react with the donor beads.
(§4) To obtain the values reported in Table 3, the data are calculated as percentage of the maximum amount of amyloid Beta 42 measured in the absence of the test compound. The sigmoidal dose response curves were analyzed using non-linear regression analysis with percentage of the control plotted against the log concentration of the compound. A 4-parameter equation was used to determine the IC50.

γ-secretase [2] = molecular target: T1, γ-secretase; test: Screening for γ-secretase-modulating activity: Aβ42 in supernatant of SKNBE2 cells carrying hAPP 695 wild type (Alphalisa); format: cell-based; conditions: SKNBE2 human neuroblastoma cells carrying hAPP 695 wild type, overnight incubation, Aβ42 in cell supernatant
Description: as §1, §2, §3, §4

Cc1cn(-c2ccc3n(c2=O)C[C@@H](C)N(Cc2cc(N4CCCCC4)cc(C(F)(F)F)c2)C3=O)cn1 [compound 86]
IC50 (γ-secretase [1]): > 10000 nM | IC50 (γ-secretase [2]): 30 nM

Cc1cn(-c2ccc3n(c2=O)CCN(Cc2cccc(-c4ccccc4)c2)C3=O)c(C)n1 [compound 87]
IC50 (γ-secretase [1]): > 10000 nM | IC50 (γ-secretase [2]): 7760 nM

Cc1ccc2cc(CN3CCn4c(ccc(-n5cnc(C)c5)c4=O)C3=O)ccc2c1 [compound 94]
IC50 (γ-secretase [1]): > 10000 nM | IC50 (γ-secretase [2]): 490 nM

Cc1cn(-c2ccc3n(c2=O)CCN(Cc2nccc(OCC(F)(F)F)c2C)C3=O)cn1 [compound 98]
IC50 (γ-secretase [1]): > 10000 nM | IC50 (γ-secretase [2]): 2880 nM

Cc1cn(-c2ccc3n(c2=O)CCN(CCc2c[nH]c4ccccc24)C3=O)cn1 [compound 104]
IC50 (γ-secretase [1]): > 10000 nM | IC50 (γ-secretase [2]): > 10000 nM

Cc1nccn1-c1ccc2n(c1=O)CCN(Cc1cccc(-c3ccccc3)c1)C2=O [compound 108]
IC50 (γ-secretase [1]): > 10000 nM | IC50 (γ-secretase [2]): 4790 nM

O=C1c2ccc(-n3ccnc3)c(=O)n2CCN1Cc1cccc(-c2ccccc2)c1 [compound 109]
IC50 (γ-secretase [1]): > 10000 nM | IC50 (γ-secretase [2]): 2090 nM

Cc1cn(-c2ccc3n(c2=O)C[C@@H](C)N(Cc2ccc(C)c(-n4cccn4)c2)C3=O)cn1 [compound 114]
IC50 (γ-secretase [1]): > 10000 nM | IC50 (γ-secretase [2]): 1910 nM

Cc1cncn1-c1ccc2n(c1=O)CCCN(Cc1ccc(Cl)c(Cl)c1)C2=O [compound 122]
IC50 (γ-secretase [1]): > 10000 nM | IC50 (γ-secretase [2]): > 10000 nM

Cc1cn(-c2ccc3n(c2=O)CCC(C)N(Cc2cc(C(F)(F)F)cc(C(F)(F)F)c2)C3=O)cn1 (stereo not shown) [compound 123]
IC50 (γ-secretase [1]): > 10000 nM | IC50 (γ-secretase [2]): 190 nM

Cc1cn(-c2ccc3n(c2=O)CC(C)N(Cc2c[nH]c4cc(Br)ccc24)C3=O)cn1 (stereo not shown) [compound 125]
IC50 (γ-secretase [1]): > 10000 nM | IC50 (γ-secretase [2]): 50 nM

Cc1cn(-c2ccc3n(c2=O)C[C@@H](C)N(Cc2cn(C)c4ccc(Cl)cc24)C3=O)cn1 [compound 137]
IC50 (γ-secretase [1]): > 10000 nM | IC50 (γ-secretase [2]): 30 nM

Cc1cn(-c2ccc3n(c2=O)C[C@@H](C)N(Cc2c[nH]c4ccc(Cl)cc24)C3=O)cn1 [compound 138]
IC50 (γ-secretase [1]): > 10000 nM | IC50 (γ-secretase [2]): 40 nM

Cc1cn(-c2ccc3n(c2=O)C[C@@H](C)N(Cc2cc(F)cc(OC(F)(F)F)c2)C3=O)cn1 [compound 139]
IC50 (γ-secretase [1]): > 10000 nM | IC50 (γ-secretase [2]): 950 nM

Cc1cn(-c2ccc3n(c2=O)C[C@@H](C)N(Cc2cc(Br)cc(OC(F)(F)F)c2)C3=O)cn1 [compound 152]
IC50 (γ-secretase [1]): > 10000 nM | IC50 (γ-secretase [2]): 70 nM

Cc1cn(-c2ccc3n(c2=O)C[C@@H](C)N(CCc2cc(OC(C)C)cc(C(F)(F)F)c2)C3=O)cn1 [compound 156]
IC50 (γ-secretase [1]): > 10000 nM | IC50 (γ-secretase [2]): 30 nM

Cc1cn(-c2cc(Cl)c3n(c2=O)C[C@@H](C)N(Cc2cc(C(F)(F)F)cc(C(F)(F)F)c2)C3=O)cn1 [compound 159]
IC50 (γ-secretase [1]): > 10000 nM | IC50 (γ-secretase [2]): 280 nM

Cc1cn(-c2c(C)cc3n(c2=O)C[C@@H](C)N(Cc2cc(C(F)(F)F)cc(C(F)(F)F)c2)C3=O)cn1 [compound 161]
IC50 (γ-secretase [1]): > 10000 nM | IC50 (γ-secretase [2]): 790 nM

Cc1cn(-c2ccc3n(c2=O)C[C@@H](C)N(Cc2ccc(C)c(OCC4CC4)c2)C3=O)cn1 [compound 162]
IC50 (γ-secretase [1]): > 10000 nM | IC50 (γ-secretase [2]): 100 nM

Cc1cn(-c2ccc3n(c2=O)C[C@@H](C)N(Cc2cc(OC(C)C)c(Cl)cc2F)C3=O)cn1 [compound 163]
IC50 (γ-secretase [1]): > 10000 nM | IC50 (γ-secretase [2]): 170 nM

Cc1cn(-c2ccc3n(c2=O)C[C@@H](C)N(Cc2csc4ccc(Cl)cc24)C3=O)cn1 [compound 165]
IC50 (γ-secretase [1]): > 10000 nM | IC50 (γ-secretase [2]): 20 nM

Cc1cn(-c2ccc3n(c2=O)CC(C(C)O)N(Cc2cc(C(F)(F)F)cc(C(F)(F)F)c2)C3=O)cn1 (stereo not shown) [compound 167]
IC50 (γ-secretase [1]): > 10000 nM | IC50 (γ-secretase [2]): 1200 nM

Cc1cn(-c2ccc3n(c2=O)C[C@@H](C)N(Cc2ccc(C(F)(F)F)c(N4CCCCC4)c2)C3=O)cn1 [compound 171]
IC50 (γ-secretase [1]): > 10000 nM | IC50 (γ-secretase [2]): 40 nM

C[C@@H]1Cn2c(ccc(-n3ccnc3)c2=O)C(=O)N1Cc1cc(C(F)(F)F)cc(C(F)(F)F)c1 [compound 173]
IC50 (γ-secretase [1]): > 10000 nM | IC50 (γ-secretase [2]): 1260 nM

Cc1cn(-c2ccc3n(c2=O)C[C@@H](C)N(Cc2cn(C)c4cc(F)c(C5CC5)cc24)C3=O)cn1 [compound 174]
IC50 (γ-secretase [1]): 5000 nM | IC50 (γ-secretase [2]): 10 nM

Cc1cn(-c2ccc3n(c2=O)C[C@@H](C)N(CCc2ccccc2)C3=O)cn1 [compound 176]
IC50 (γ-secretase [1]): > 10000 nM | IC50 (γ-secretase [2]): 1550 nM
